Measured values as given in ChEMBL document CHEMBL3885881, “DrugMatrix”.

Species on record: Rattus norvegicus
Experiment: DrugMatrix - Regimen: Daily Repeat
Format: toxicity, organism-based, Sprague-Dawley
Set-up: regimen Daily Repeat, gender Male, age 6-8 weeks
Conditions: in vivo, po, route oral GAVAGE, vehicle 100 % WATER; for ABSOLUTE BASOPHIL / ABSOLUTE EOSINOPHIL / ABSOLUTE LYMPHOCYTE / ABSOLUTE MONOCYTE / ABSOLUTE SEGMENTED NEUTROPHIL / BASOPHIL / EOSINOPHIL / ERYTHROCYTE COUNT / HEMATOCRIT / HEMOGLOBIN / LEUKOCYTE COUNT / LYMPHOCYTE / MEAN CORPUSCULAR HEMOGLOBIN / MEAN CORPUSCULAR HEMOGLOBIN CONCENTRATION / MEAN CORPUSCULAR VOLUME / MONOCYTE / NEUTROPHIL / NUCLEATED RED BLOOD CELLS / PLATELET COUNT: tissue Blood; for ALANINE AMINOTRANSFERASE / ALBUMIN / ALKALINE PHOSPHATASE / ASPARTATE AMINOTRANSFERASE / BLOOD UREA NITROGEN / CARBON DIOXIDE / CHLORIDE / CHOLESTEROL / CREATINE PHOSPHOKINASE / CREATININE / GLUCOSE / LACTATE DEHYDROGENASE / LIPASE / PHOSPHORUS / POTASSIUM / SODIUM / TOTAL BILIRUBIN / TOTAL PROTEIN / URIC ACID: tissue Plasma
[1] = 0 mg/kg, 72 h, dose level Control, time 3 day
[2] = 0 mg/kg, 120 h, dose level Control, time 5 day
[3] = 1 mg/kg, 72 h, dose level Low, time 3 day

## CC[C@H](C)[C@H]1O[C@]2(C=C[C@@H]1C)C[C@@H]1C[C@@H](C/C=C(\C)[C@@H](O[C@H]3C[C@H](OC)[C@@H](O[C@H]4C[C@H](OC)[C@@H](O)[C@H](C)O4)[C@H](C)O3)[C@@H](C)/C=C/C=C3\CO[C@@H]4[C@H](O)C(C)=C[C@@H](C(=O)O1)[C@]34O)O2.CO[C@H]1C[C@H](O[C@H]2[C@H](C)O[C@@H](O[C@@H]3/C(C)=C/C[C@@H]4C[C@@H](C[C@]5(C=C[C@H](C)[C@@H](C(C)C)O5)O4)OC(=O)[C@@H]4C=C(C)[C@@H](O)[C@H]5OC/C(=C\C=C\[C@@H]3C)[C@]54O)C[C@@H]2OC)O[C@@H](C)[C@@H]1O [ABAMECTIN]
[1]
  ABSOLUTE BASOPHIL: 0 CELLS/uL
  ABSOLUTE EOSINOPHIL: 40 CELLS/uL
  ABSOLUTE LYMPHOCYTE: 13599.5 CELLS/uL
  ABSOLUTE MONOCYTE: 239.33 CELLS/uL
  ABSOLUTE SEGMENTED NEUTROPHIL: 1021.17 CELLS/uL
  BASOPHIL: 0%
  EOSINOPHIL: 0.33%
  ERYTHROCYTE COUNT: 5.71 x10E6/uL
  HEMATOCRIT: 36.35%
  HEMOGLOBIN: 14.05 G/DL
  LEUKOCYTE COUNT: 14.9 x10E3/uL
  LYMPHOCYTE: 91%
  MEAN CORPUSCULAR HEMOGLOBIN: 24.62 pg
  MEAN CORPUSCULAR HEMOGLOBIN CONCENTRATION: 38.65 G/DL
  MEAN CORPUSCULAR VOLUME: 63.7 fL
  MONOCYTE: 1.5%
  NEUTROPHIL: 7.17%
  NUCLEATED RED BLOOD CELLS: 0.33 /100WBC
  PLATELET COUNT: 1225.5 x10E3/uL
  ALANINE AMINOTRANSFERASE: 48.5 u/L
  ALBUMIN: 4.18 G/DL
  ALKALINE PHOSPHATASE: 390.83 u/L
  ASPARTATE AMINOTRANSFERASE: 89 u/L
  BLOOD UREA NITROGEN: 14.83 mg/dL
  CARBON DIOXIDE: 24.83 mmol/L
  CHLORIDE: 100.83 MEQ/L
  CHOLESTEROL: 72.5 mg/dL
  CREATINE PHOSPHOKINASE: 503 u/L
  CREATININE: 0.2 mg/dL
  GLUCOSE: 163 mg/dL
  LACTATE DEHYDROGENASE: 316.83 u/L
  LIPASE: 9.83 u/L
  PHOSPHORUS: 11.57 mg/dL
  POTASSIUM: 6.16 MEQ/L
  SODIUM: 142.62 MEQ/L
  TOTAL BILIRUBIN: 0.2 mg/dL
  TOTAL PROTEIN: 5.8 G/DL
  URIC ACID: 1.65 mg/dL
[2]
  ABSOLUTE BASOPHIL: 0 CELLS/uL
  ABSOLUTE EOSINOPHIL: 21 CELLS/uL
  ABSOLUTE LYMPHOCYTE: 14288.5 CELLS/uL
  ABSOLUTE MONOCYTE: 205.33 CELLS/uL
  ABSOLUTE SEGMENTED NEUTROPHIL: 968.5 CELLS/uL
  BASOPHIL: 0%
  EOSINOPHIL: 0.17%
  ERYTHROCYTE COUNT: 5.83 x10E6/uL
  HEMATOCRIT: 36.53%
  HEMOGLOBIN: 14.4 G/DL
  LEUKOCYTE COUNT: 15.48 x10E3/uL
  LYMPHOCYTE: 92%
  MEAN CORPUSCULAR HEMOGLOBIN: 24.72 pg
  MEAN CORPUSCULAR HEMOGLOBIN CONCENTRATION: 39.43 G/DL
  MEAN CORPUSCULAR VOLUME: 62.68 fL
  MONOCYTE: 1.33%
  NEUTROPHIL: 6.5%
  NUCLEATED RED BLOOD CELLS: 0.17 /100WBC
  PLATELET COUNT: 1280.5 x10E3/uL
  ALANINE AMINOTRANSFERASE: 50 u/L
  ALBUMIN: 4.28 G/DL
  ALKALINE PHOSPHATASE: 380.17 u/L
  ASPARTATE AMINOTRANSFERASE: 82.67 u/L
  BLOOD UREA NITROGEN: 15.33 mg/dL
  CARBON DIOXIDE: 27.17 mmol/L
  CHLORIDE: 100.33 MEQ/L
  CHOLESTEROL: 60.67 mg/dL
  CREATINE PHOSPHOKINASE: 441.5 u/L
  CREATININE: 0.16 mg/dL
  GLUCOSE: 146 mg/dL
  LACTATE DEHYDROGENASE: 189.33 u/L
  LIPASE: 9.17 u/L
  PHOSPHORUS: 11.67 mg/dL
  POTASSIUM: 6.86 MEQ/L
  SODIUM: 142.33 MEQ/L
  TOTAL BILIRUBIN: 0.2 mg/dL
  TOTAL PROTEIN: 6.12 G/DL
  URIC ACID: 1.82 mg/dL
[3]
  ABSOLUTE BASOPHIL: 0 CELLS/uL
  ABSOLUTE EOSINOPHIL: 0 CELLS/uL
  ABSOLUTE LYMPHOCYTE: 13707 CELLS/uL
  ABSOLUTE MONOCYTE: 388 CELLS/uL
  ABSOLUTE SEGMENTED NEUTROPHIL: 1005 CELLS/uL
  BASOPHIL: 0%
  EOSINOPHIL: 0%
  ERYTHROCYTE COUNT: 5.4 x10E6/uL
  HEMATOCRIT: 34.53%
  HEMOGLOBIN: 13.23 G/DL
  LEUKOCYTE COUNT: 15.1 x10E3/uL
  LYMPHOCYTE: 91%
  MEAN CORPUSCULAR HEMOGLOBIN: 24.47 pg
  MEAN CORPUSCULAR HEMOGLOBIN CONCENTRATION: 38.3 G/DL
  MEAN CORPUSCULAR VOLUME: 63.93 fL
  MONOCYTE: 2.67%
  NEUTROPHIL: 6.33%
  NUCLEATED RED BLOOD CELLS: 0 /100WBC
  PLATELET COUNT: 1310 x10E3/uL
  ALANINE AMINOTRANSFERASE: 54 u/L
  ALBUMIN: 4.17 G/DL
  ALKALINE PHOSPHATASE: 413 u/L
  ASPARTATE AMINOTRANSFERASE: 81.33 u/L
  BLOOD UREA NITROGEN: 14.33 mg/dL
  CARBON DIOXIDE: 26.67 mmol/L
  CHLORIDE: 100.33 MEQ/L
  CHOLESTEROL: 79.67 mg/dL
  CREATINE PHOSPHOKINASE: 332.67 u/L
  CREATININE: 0.19 mg/dL
  GLUCOSE: 158 mg/dL
  LACTATE DEHYDROGENASE: 294.67 u/L
  LIPASE: 9 u/L
  PHOSPHORUS: 11.97 mg/dL
  POTASSIUM: 6.52 MEQ/L
  SODIUM: 142.57 MEQ/L
  TOTAL BILIRUBIN: 0.23 mg/dL
  TOTAL PROTEIN: 5.73 G/DL
  URIC ACID: 1.57 mg/dL
